Read-outs that look alike come from different tables or passages of the source.
Columns and labels:
[1] = system: pancreatic cancer with distant metastases; conditions: pancreatic tumors with distant metastases; cited from earlier work
EGFR and erbB2 kinases = conditions: Rusnak et al., 2001b; Xia et al., 2002; cited from earlier work
[2] = system: locally advanced or metastatic transitional cell carcinoma of the urothelial tract
Description: Safety and efficacy assessments (independent review) were carried out at 4 and 8-week intervals respectively. Patients were also assessed at withdrawal, and followed every 2 months until death.

NCI-H747 = experiment: Cell growth inhibition IC50, NCI-H747; conditions: Homo sapiens, NCI-H747, read-out: Growth Inhibition (IC50 μM)
Description: (§1) The cells were maintained in tissue culture flasks in RPMI 1640 (Invitrogen # 22400-089) with 10% fetal bovine serum (FBS, HyClone # SH30071.03) and were incubated at 37° Celsius in an atmosphere of 5% CO2, until plating for IC50 determination. For IC50 determination, cells were plated in the appropriate medium at 5,000 cells per well in a 96-well tissue culture dish and returned to the incubator overnight. […] Final concentrations ranged from 30 micromolar to 0.00152 micromolar. After three days of compound exposure, the growth medium was removed by aspiration. Cell biomass was estimated by staining cells in 0.1 ml per well of methylene blue (Sigma #M9140, 0.5% in 50:50, ethanol:water), followed by incubation at room temperature for at least 30 minutes. Stain was aspirated and the plates rinsed by immersion in deionized water, followed by air drying. Stain was released from cells by the addition of 0.1 ml of solubilization solution (1.0% N-lauryl sarcosine, Sodium salt, Sigma #L5121 in PBS). Plates were incubated at room temperature for 40 minutes. Absorbance was read at 620 nm in a Tecan Spectra micro-plate reader. Percent inhibition of cell growth was calculated relative to untreated control wells. IC50 values were interpolated using the method of Levenberg and Marquardt (Mager, 1972) and the equation: y=Vmax*[1−(x^n/(K^n+x^n))], where “K” is equal to IC50. […]

A549 = experiment: Cell growth inhibition IC50, A549; conditions: Homo sapiens, A549, read-out: Growth Inhibition (IC50 μM)
Description: (§2) The human bladder cell lines, HT-1197, HT-1376 and T24, and the ovarian cell line, SKOV3, were obtained from the American Type Culture Collection. The cells were maintained in tissue culture flasks in RPMI 1640 (Invitrogen # 22400-089) with 10% fetal bovine serum (FBS, HyClone # SH30071.03) and were incubated at 37° Celsius in an atmosphere of 5% CO2, until plating for IC50 determination. For IC50 determination, cells were plated in the appropriate medium at 5,000 cells per well in a 96-well tissue culture dish and returned to the incubator overnight. […] Final concentrations ranged from 30 micromolar to 0.00152 micromolar. After three days of compound exposure, the growth medium was removed by aspiration. Cell biomass was estimated by staining cells in 0.1 ml per well of methylene blue (Sigma #M9140, 0.5% in 50:50, ethanol:water), followed by incubation at room temperature for at least 30 minutes. Stain was aspirated and the plates rinsed by immersion in deionized water, followed by air drying. Stain was released from cells by the addition of 0.1 ml of solubilization solution (1.0% N-lauryl sarcosine, Sodium salt, Sigma #L5121 in PBS). Plates were incubated at room temperature for 40 minutes. Absorbance was read at 620 nm in a Tecan Spectra micro-plate reader. Percent inhibition of cell growth was calculated relative to untreated control wells. […]

Colo 205 = experiment: Cell growth inhibition IC50, Colo 205; conditions: Homo sapiens, COLO 205, read-out: Growth Inhibition (IC50 μM)
H157 = experiment: Cell growth inhibition IC50, H157; format: cell-based; conditions: Homo sapiens, NCI-H157, Lung carcinoma
Description: as §1

RKO = experiment: Cell growth inhibition IC50, RKO; format: cell-based; conditions: Homo sapiens, Colorectal carcinoma
Description: as §1

HCT 116 = experiment: Cell growth inhibition IC50, HCT 116; conditions: Homo sapiens, HCT-116, read-out: Growth Inhibition (IC50 μM)
Description: as §1

H1197 = experiment: Cell growth inhibition IC50 (methylene blue), H1197; conditions: Homo sapiens, 72 h, read-out: Growth Inhibition (IC50 μM)
Description: The cells were maintained in tissue culture flasks in RPMI 1640 (Invitrogen # 22400-089) with 10% fetal bovine serum (FBS, HyClone # SH30071.03) and were incubated at 37° Celsius in an atmosphere of 5% CO2, until plating for IC50 determination. For IC50 determination, cells were plated in the appropriate medium at 5,000 cells per well in a 96-well tissue culture dish and returned to the incubator overnight. […] Final concentrations ranged from 30 micromolar to 0.00152 micromolar. After three days of compound exposure, the growth medium was removed by aspiration. Cell biomass was estimated by staining cells in 0.1 ml per well of methylene blue (Sigma #M9140, 0.5% in 50:50, ethanol:water), followed by incubation at room temperature for at least 30 minutes. Stain was aspirated and the plates rinsed by immersion in deionized water, followed by air drying. Stain was released from cells by the addition of 0.1 ml of solubilization solution (1.0% N-lauryl sarcosine, Sodium salt, Sigma #L5121 in PBS). Plates were incubated at room temperature for 40 minutes. Absorbance was read at 620 nm in a Tecan Spectra micro-plate reader. Percent inhibition of cell growth was calculated relative to untreated control wells. IC50 values were interpolated using the method of Levenberg and Marquardt (Mager, 1972) and the equation: y=Vmax*[1−(x^n/(K^n+x^n))], where “K” is equal to IC50.

786O = experiment: Cell growth inhibition IC50, 786O; conditions: Homo sapiens, 786-0, read-out: Growth Inhibition (IC50 μM)
Description: as §2

NCI-H460 = experiment: Cell growth inhibition IC50, NCI-H460; format: cell-based; conditions: Homo sapiens, Lung Carcinoma
Description: as §2

Calu1 = experiment: Cell growth inhibition IC50, Calu1; conditions: Homo sapiens, Calu-1, read-out: Growth Inhibition (IC50 μM)
Description: as §1

NCI-H2009 = experiment: Cell growth inhibition IC50, NCI-H2009; conditions: Homo sapiens, NCI-H2009, read-out: Growth Inhibition (IC50 μM)
Description: as §1

NCI-H322 = experiment: Cell growth inhibition IC50, NCI-H322; format: cell-based; conditions: NSCLC
Description: as §1

LNCaP = experiment: Cell growth inhibition IC50, LNCaP; conditions: Homo sapiens, read-out: Growth Inhibition (IC50 μM)
Description: as §2

BxPC3 = experiment: Cell growth inhibition IC50, BxPC3; conditions: Homo sapiens, BXPC-3, read-out: Growth Inhibition (IC50 μM)
Description: as §1

SKMEL28 = experiment: Cell growth inhibition IC50, SKMEL28; format: cell-based; conditions: Homo sapiens, SK-MEL-28, Melanoma
Description: as §1

HFF = experiment: Cell growth inhibition IC50, HFF; conditions: Homo sapiens, read-out: Growth Inhibition (IC50 μM)
Description: as §2

LS174T = experiment: Cell growth inhibition IC50, LS174T; format: cell-based; conditions: Homo sapiens, Colon adenocarcinoma
Description: as §1

T24 = experiment: Cell growth inhibition IC50 (methylene blue), T24; conditions: Homo sapiens, T-24, 72 h, read-out: Growth Inhibition (IC50 μM)
Description: as §2

H1376 = experiment: Cell growth inhibition IC50 (methylene blue), H1376; conditions: Homo sapiens, 72 h, read-out: Growth Inhibition (IC50 μM)
Description: as §2

A431 = experiment: Cell growth inhibition IC50, A431; conditions: Homo sapiens, A-431, read-out: Growth Inhibition (IC50 μM)
Description: as §2

Lovo = experiment: Cell growth inhibition IC50, Lovo; format: cell-based; conditions: Homo sapiens, Colorectal carcinoma
Description: as §2

A427 = experiment: Cell growth inhibition IC50, A427; format: cell-based; conditions: Homo sapiens, A-427, Lung Carcinoma
Description: as §2

[3] = system: H16 N2 (Transfected erbB2); experiment: Cell growth inhibition IC50, H16 N2; conditions: read-out: Growth Inhibition (IC50 μM)
Description: as §2

HT29 = experiment: Cell growth inhibition IC50, HT29; conditions: Homo sapiens, HT-29, read-out: Growth Inhibition (IC50 μM)
CaLu3 = experiment: Cell growth inhibition IC50, CaLu3; conditions: Homo sapiens, Calu-3, read-out: Growth Inhibition (IC50 μM)
Description: as §2

SKOV3 = experiment: Cell growth inhibition IC50 (methylene blue), SKOV3; conditions: Homo sapiens, SK-OV-3, 72 h, read-out: Growth Inhibition (IC50 μM)
Description: as §2

SW837 = experiment: Cell growth inhibition IC50, SW837; conditions: Homo sapiens, SW837, read-out: Growth Inhibition (IC50 μM)
NCI-H727 = experiment: Cell growth inhibition IC50, NCI-H727; format: cell-based; conditions: Homo sapiens, Lung carcinoid bronchus
Description: as §1

DLD-1 = experiment: Cell growth inhibition IC50, DLD-1; conditions: Homo sapiens, DLD-1, read-out: Growth Inhibition (IC50 μM)
Description: as §1

PC3 = experiment: Cell growth inhibition IC50, PC3; conditions: Homo sapiens, PC-3, read-out: Growth Inhibition (IC50 μM)
Description: as §2

SW620 = experiment: Cell growth inhibition IC50, SW620; conditions: Homo sapiens, SW-620, read-out: Growth Inhibition (IC50 μM)
solid tumors = conditions: for time remained on lapatinib, SD patient: progressing on previous therapy
[4] = system: locally advanced or metastatic TCC of the bladder
HMEC = experiment: Cell growth inhibition IC50, HMEC; conditions: Homo sapiens, read-out: Growth Inhibition (IC50 μM)
Description: as §1

NCI-H358 = experiment: Cell growth inhibition IC50, NCI-H358; conditions: Homo sapiens, NCI-H358, read-out: Growth Inhibition (IC50 μM)
Description: as §1

SW480 = experiment: Cell growth inhibition IC50, SW480; conditions: Homo sapiens, SW480, read-out: Growth Inhibition (IC50 μM)
Description: as §2

[5] = 1250 mg once daily, interim analysis of 30 patients
[6] = Head and Neck, 9 patients, only patients receiving lapatinib more than 4 months
[7] = QD administration, heavily pre-treated population
[8] = 1250 mg daily oral, 59 patients, investigator reported

## O=c1[nH]cc(F)c(=O)[nH]1 [FU, fluorouracil]
[1]
  clinical benefit response (cancer-related symptoms): 4.8%
  overall survival: 4.4 months

## CS(=O)(=O)CCNCc1ccc(-c2ccc3ncnc(Nc4ccc(OCc5cccc(F)c5)c(Cl)c4)c3c2)o1 [GW572016, N-{3-chloro-4-[(3-fluorobenzyl)oxy]phenyl}-6-[5-({[2-(methanesulphonyl)ethyl]amino}methyl)-2-furyl]-4-quinazolinamine]
EGFR and erbB2 kinases
  kinase inhibition in human xenograft studies: dose-dependent kinase inhibition

## CS(=O)(=O)CCNCc1ccc(-c2ccc3ncnc(Nc4ccc(OCc5cccc(F)c5)c(Cl)c4)c3c2)o1.Cc1ccc(S(=O)(=O)O)cc1 [GW572016F, N-{3-Chloro-4-[(3-fluorobenzyl)oxy]phenyl}-6-[5-({[2-(methanesulphonyl)ethyl]amino}methyl)-2-furyl]-4-quinazolinamine ditosylate monohydrate]
[2]; [5]
  Clinical benefit (≧6 months SD): 10%
  PR confirmed at 8 weeks (number): one
  patients with progressive disease: 17%
  patients with tumour reduction qualified as partial responses (PR) at the initial assessment: 10%
[2]; second-line oral treatment
  activity (in words): promising activity
NCI-H747
  IC50: 1.49 µM
A549
  IC50: 4.98 µM
Colo 205
  IC50: 7.7 µM
H157
  IC50: 5.98 µM
RKO
  IC50: 5.48 µM
HCT 116
  IC50: 5.87 µM
H1197
  IC50: 7.78 µM
786O
  IC50: 1.82 µM
NCI-H460
  IC50: 9 µM
Calu1
  IC50: 5.51 µM
NCI-H2009
  IC50: 11.5 µM
NCI-H322
  IC50: 0.92 µM
LNCaP
  IC50: 4.69 µM
BxPC3
  IC50: 1.41 µM
SKMEL28
  IC50: 5.9 µM
HFF
  IC50: 6.45 µM
LS174T
  IC50: 1.51 µM
T24
  IC50: 8.22 µM
H1376
  IC50: 3.34 µM
A431
  IC50: 0.23 µM
Lovo
  IC50: 3.39 µM
A427
  IC50: 5.95 µM
[3]
  IC50: 0.03 µM
HT29
  IC50: 5.24 µM
CaLu3
  IC50: 0.057 µM
SKOV3
  IC50: 1.25 µM
SW837
  IC50: 4.7 µM
NCI-H727
  IC50: 7.59 µM
DLD-1
  IC50: 3.63 µM
PC3
  IC50: 7.15 µM
SW620
  IC50: 6.75 µM
Solid tumors; 22 SD pts
  median duration of SD: 4 mos
Solid tumors; 81 patients treated
  interstitial pneumonitis: no cases
Solid tumors; AUP metastatic to lung
  time remained on lapatinib, SD patient: ≥ 8 mos
Solid tumors; AUP, 6 patients, only patients receiving lapatinib more than 4 months
  Clinical Response, SD (patients): SD = 1
Solid tumors; Breast, 6 patients, only patients receiving lapatinib more than 4 months
  Clinical Response, SD (patients): SD = 2
Solid tumors; Cervical, 2 patients, only patients receiving lapatinib more than 4 months
  Clinical Response, SD (patients): SD = 1
Solid tumors; Colorectal, 27 patients, only patients receiving lapatinib more than 4 months
  Clinical Response, SD (patients): SD = 3
Solid tumors; [6]
  Clinical Response, CR (patients): 1
  Clinical Response, SD (patients): 3
Solid tumors; Mesothelioma, 3 patients, only patients receiving lapatinib more than 4 months
  Clinical Response, SD (patients): SD = 1
Solid tumors; NSCLC, 7 patients, only patients receiving lapatinib more than 4 months
  Clinical Response, SD (patients): SD = 3
Solid tumors; [7]
  clinical activity (in words): evidence of clinical activity
  tolerability (in words): well tolerated
Solid tumors; Renal, 6 patients, only patients receiving lapatinib more than 4 months
  Clinical Response, SD (patients): SD = 2
Solid tumors; erbB1 overexpressing head and neck squamous cell carcinoma
  duration of CR: ≥ 16 mos
Solid tumors; erbB1 overexpressing head and neck squamous cell carcinoma, 81 patients treated
  CR (number of patients): One
Solid tumors; non-small cell lung cancer
  time remained on lapatinib, SD patient: ≥ 12 mos
Solid tumors; various tumors most overexpressing either erbB1 or erbB2, 81 patients treated
  patients who experienced SD: Twenty-two
[4]; 1250 mg daily
  patients with asymptomatic, Grade 2 decrease in cardiac ejection fraction: One
  tolerability (in words): well-tolerated
[4]; 1250 mg daily oral, 59 patients, RECIST
  PR, independent radiologic review: 2%
[4]; [8]
  partial responses (PR), investigators: 3%
  stable disease (SD), investigators: 20%
[4]; 1250 mg daily, Grade 3/4
  Grade 3/4 AEs: diarrhea: 3%
  Grade 3/4 AEs: vomiting: 7%
[4]; 1250 mg daily, all grades
  Adverse events: asthenia: 12%
  Adverse events: diarrhea: 39%
  Adverse events: fatigue: 10%
  Adverse events: nausea: 27%
  Adverse events: rash: 32%
  Adverse events: vomiting: 22%
[4]; 95% CI 8.00, 11.29
  median TTP: 8.6 weeks
[4]; 95% CI 13.14, 30.29
  median overall survival: 17.9 weeks
[4]; assessed by independent review
  clinical benefit (CR+PR+SD≧16 weeks), independent review: 12%
[4]; assessed by investigator
  clinical benefit (CR+PR+SD≧16 weeks), investigator: 14%
[4]; at week 8
  patients with cytoreduction: 10 patients
  patients with cytostasis: 4 patients
  patients with tumor growth up to 20%: 10 patients
[4]; independent review
  patients with durable SD lasting 6 months: three
[4]; investigator review
  patients with durable SD lasting 4 months: six
[4]; one patient
  time on study of one patient who remains on study: > 56 weeks
[4]; relapsed, advanced or metastatic TCC of the bladder
  activity (in words): exhibits monotherapy activity
HMEC
  IC50: 1.34 µM
NCI-H358
  IC50: 0.27 µM
SW480
  IC50: 6.86 µM

## Nc1ccn([C@@H]2O[C@H](CO)[C@@H](O)C2(F)F)c(=O)n1 [gemcitabine]
[1]
  clinical benefit response (cancer-related symptoms): 23.8%
  overall survival: 5.6 months

Reference: US20100063074A1, “Cancer Treatment Method” (priority 2004, published 2010)
